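Protocol summary: plate cells (96-well), add compound at 5 concentrations, incubate 48 h, interpolate endpoints linearly. GI50 is the concentration that inhibits growth by half.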 Active and inactive are the calls of the source. Cut-off read from the data, not from the text of the source: active = GI50 up to about 1.1 µM and inactive = higher.
What was measured:
Experiment in all cases: DTP human tumour cell line panel, 48 h
MDA-N = tested on: MDA-N
SF-539 = tested on: SF-539
HCT-15 = tested on: HCT-15
M14 = tested on: M14
Hs-578T = tested on: Hs-578T
HT-29 = tested on: HT-29
SK-MEL-28 = tested on: SK-MEL-28
SNB-19 = tested on: SNB-19
SF-268 = tested on: SF-268
TK-10 = tested on: TK-10
K562 = tested on: K562
IGROV-1 = tested on: IGROV-1
NCI-H226 = tested on: NCI-H226
SK-MEL-5 = tested on: SK-MEL-5
HOP-62 = tested on: HOP-62
OVCAR-5 = tested on: OVCAR-5
OVCAR-8 = tested on: OVCAR-8
UO-31 = tested on: UO-31
MDA-MB-435 = tested on: MDA-MB-435
SR = tested on: SR

Compound	GI50 (MDA-N)	GI50 (SF-539)	GI50 (HCT-15)	GI50 (M14)	GI50 (Hs-578T)	GI50 (HT-29)	GI50 (SK-MEL-28)	GI50 (SNB-19)	GI50 (SF-268)	GI50 (TK-10)	GI50 (K562)	GI50 (IGROV-1)	GI50 (NCI-H226)	GI50 (SK-MEL-5)	GI50 (HOP-62)	GI50 (OVCAR-5)	GI50 (OVCAR-8)	GI50 (UO-31)	GI50 (MDA-MB-435)	GI50 (SR)
CC(=O)O[C@H]1C(=O)[C@@]2(C)[C@H]([C@H](OC(=O)c3ccccc3)[C@@]3(O)C[C@H](O)C(C)=C1C3(C)C)[C@]1(OC(C)=O)CO[C@@H]1C[C@@H]2O	4.55 µM (inactive)	32.1 µM (inactive)	53.3 µM	28.6 µM (inactive)	19 µM (inactive)	23.3 µM (inactive)	64.9 µM (inactive)	69.3 µM (inactive)	83.4 µM (inactive)	83.2 µM (inactive)	55.8 µM (inactive)	19.5 µM (inactive)	86.5 µM (inactive)	35.8 µM (inactive)	54 µM (inactive)	63.5 µM (inactive)	31.2 µM (inactive)	82 µM (inactive)	11.9 µM (inactive)	12.9 µM (inactive)
CCOC(=O)/C(=N\Nc1ccc(-n2c(C)nc3ccccc3c2=O)cc1)C(C)=O	29 µM (inactive)	51.8 µM (inactive)	37.7 µM	24.2 µM (inactive)	20.7 µM (inactive)	53.6 µM (inactive)	20.3 µM (inactive)	> 100 µM (inactive)	25.8 µM (inactive)	20.9 µM (inactive)	32.6 µM (inactive)	22.9 µM (inactive)	18.7 µM (inactive)	2.25 µM (inactive)	40.2 µM (inactive)	> 100 µM (inactive)	19.6 µM (inactive)	29.1 µM (inactive)	17.5 µM (inactive)	33.3 µM (inactive)
Cc1cc(=O)oc2c(C)c3oc(CBr)cc3cc12	19.2 µM (inactive)	20.9 µM (inactive)	18.2 µM	18.2 µM (inactive)	35.6 µM (inactive)	27.4 µM (inactive)	19.8 µM (inactive)	29 µM (inactive)	19.5 µM (inactive)	19.9 µM (inactive)	19.9 µM (inactive)	16.8 µM (inactive)	15.5 µM (inactive)	13.2 µM (inactive)	16.2 µM (inactive)	16.8 µM (inactive)	23.8 µM (inactive)	15.9 µM (inactive)	18.2 µM (inactive)	33 µM (inactive)
CC(=O)OCC1OC(N2C(c3ccccc3)=CC(c3ccccc3)C(C#N)=C2S)C(OC(C)=O)C(OC(C)=O)C1OC(C)=O (stereo not given)	2.02 µM (inactive)	2.56 µM (inactive)	48.5 µM	12.6 µM (inactive)	3.27 µM (inactive)	2.35 µM (inactive)	8.95 µM (inactive)	5.96 µM (inactive)	5.33 µM (inactive)	22.2 µM (inactive)	3.76 µM (inactive)	18.2 µM (inactive)	12.7 µM (inactive)	1.64 µM (inactive)	4.06 µM (inactive)	14.6 µM (inactive)	3.88 µM (inactive)	19.2 µM (inactive)	4.92 µM (inactive)	42 µM (inactive)
CC(C)=CC(=O)c1[nH]c2ccccc2c1CC(=O)NCCc1cn(C(c2ccccc2)(c2ccccc2)c2ccccc2)cn1	2.91 µM (inactive)	2.69 µM (inactive)	3.89 µM	2.02 µM (inactive)	16.8 µM (inactive)	3.32 µM (inactive)	3.4 µM (inactive)	6.05 µM (inactive)	16.8 µM (inactive)	6.76 µM (inactive)	2.99 µM (inactive)	3.84 µM (inactive)	2.94 µM (inactive)	2.08 µM (inactive)	11.9 µM (inactive)	3.39 µM (inactive)	3.96 µM (inactive)	3.55 µM (inactive)	2.06 µM (inactive)	0.979 µM (active)
C[C@]12OC[C@H](c3ccccc3)N1C(=O)C1[C@H]2CC12SCCS2 (stereo not given in full)	> 100 µM (inactive)	> 100 µM (inactive)	> 100 µM	> 100 µM (inactive)	> 100 µM (inactive)	> 100 µM (inactive)	> 100 µM (inactive)	> 100 µM (inactive)	> 100 µM (inactive)	> 100 µM (inactive)	> 100 µM (inactive)	> 100 µM (inactive)	> 100 µM (inactive)	> 100 µM (inactive)	> 100 µM (inactive)	> 100 µM (inactive)	> 100 µM (inactive)	> 100 µM (inactive)	> 100 µM (inactive)	> 100 µM (inactive)

Reference: ChEMBL document CHEMBL1201862, “PubChem BioAssay data set” (2004)
